How the values were obtained:
cytochrome bc1 = cytochrome bc1 (Mycobacterium tuberculosis, UniProt P9WP37); conditions: by inhibiting cytochrome bc1 activity; Pethe et al., Nature Medicine 2013; cited from earlier work
[1] = Solubility of Q203 in aqueous solutions (background statement); assay type: physicochemical

Sequence of cytochrome bc1 (P9WP37 whole entry, looked up): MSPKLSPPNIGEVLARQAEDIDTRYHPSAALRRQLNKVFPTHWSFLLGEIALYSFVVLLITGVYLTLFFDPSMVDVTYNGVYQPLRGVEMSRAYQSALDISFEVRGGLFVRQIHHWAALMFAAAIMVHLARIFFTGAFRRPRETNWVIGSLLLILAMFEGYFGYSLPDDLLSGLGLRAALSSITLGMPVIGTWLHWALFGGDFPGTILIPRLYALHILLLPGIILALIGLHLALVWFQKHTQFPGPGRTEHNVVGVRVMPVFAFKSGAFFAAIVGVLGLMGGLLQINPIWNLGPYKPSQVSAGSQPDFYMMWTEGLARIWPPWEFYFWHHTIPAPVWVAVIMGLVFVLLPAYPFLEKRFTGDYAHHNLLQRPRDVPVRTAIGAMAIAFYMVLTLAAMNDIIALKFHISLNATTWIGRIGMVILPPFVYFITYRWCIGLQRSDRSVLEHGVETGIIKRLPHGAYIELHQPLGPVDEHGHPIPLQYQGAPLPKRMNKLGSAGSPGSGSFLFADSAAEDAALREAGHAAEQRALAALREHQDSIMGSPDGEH

## CCc1nc2ccc(Cl)cn2c1C(=O)NCc1ccc(N2CCC(c3ccc(OC(F)(F)F)cc3)CC2)cc1 [Example Q203, 6-chloro-2-ethyl-N-(4-(4-(4-(trifluoromethoxy)phenyl)piperidine-1-yl)benzyl)imidazo[1,2-a]pyridine-3-carboxamide]
Cytochrome bc1
  activity against tuberculosis: active against tuberculosis
[1]
  solubility in aqueous solutions: rather low solubility
